# Experimental data published in paper PMC6079302, “Investigating the Mechanism of Action of Diketopiperazines Inhibitors of the Burkholderia cenocepacia Quorum Sensing Synthase CepI: A Site-Directed Mutagenesis Study” (Frontiers in Pharmacology, 2018).
# Key:
# [1] = target: T1, CepI wild type (Burkholderia cenocepacia, UniProt B4EMD2); assay: CepI activity assay (DCPIP), IC50 determination, wild type enzyme; type: biochemical; details: 70 μM C8-ACP, 40 μM SAM, 4 μM CepI, read-out: compound 8b IC50
# T1 sequence (B4EMD2 1-202): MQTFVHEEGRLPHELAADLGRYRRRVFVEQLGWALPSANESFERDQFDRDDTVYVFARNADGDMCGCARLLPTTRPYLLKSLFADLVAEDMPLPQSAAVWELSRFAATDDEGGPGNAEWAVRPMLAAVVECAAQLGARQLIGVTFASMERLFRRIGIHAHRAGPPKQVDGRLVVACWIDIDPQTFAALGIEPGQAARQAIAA
# Protocol: Wild type and mutant CepI were expressed in Escherichia coli BL21(DE3) cells and purified as previously described ([Scoffone et al., 2016]).
# CepI activity was determined according to [Christensen et al. (2013)]. Reaction mixtures contained 50 mM 4-(2-hydroxyethyl)-1-piperazineethanesulfonic acid (HEPES) pH 7.5, 0.005% Nonidet P-40, 0.13 mM 2,6-dichlorophenylindophenol (DCPIP), 70 μM Octanoyl-ACP (C8-ACP, prepared as reported previously) ([Quadri et al., 1998]; [Cronan and Thomas, 2009]), 40 μM S-adenosyl methionine (SAM), 4 μM CepI.
# IC50 was determined measuring the enzyme activity in presence of different concentrations of compound, and values determined with the following equation ([Copeland, 2000]), where A[I] is the enzyme activity at inhibitor concentration [I] and A[0] is the enzyme activity without inhibitor.
# [2] = target: T2, CepI R24Q mutant (Burkholderia cenocepacia, UniProt B4EMD2, R24Q); assay: CepI activity assay (DCPIP), IC50 determination, R24Q mutant; type: biochemical
# T2 sequence (B4EMD2 1-202 R24Q): T1 sequence (B4EMD2 1-202)
# [3] = target: T3, CepI E40Q mutant (Burkholderia cenocepacia, UniProt B4EMD2, E40Q); assay: CepI activity assay (DCPIP), IC50 determination, E40Q mutant; type: biochemical
# T3 sequence (B4EMD2 1-202 E40Q): T1 sequence (B4EMD2 1-202)
# [4] = target: T4, CepI S41A mutant (Burkholderia cenocepacia, UniProt B4EMD2, S41A); assay: CepI activity assay (DCPIP), IC50 determination, S41A mutant; type: biochemical
# T4 sequence (B4EMD2 1-202 S41A): T1 sequence (B4EMD2 1-202)
# [5] = target: T5, CepI S41R mutant (Burkholderia cenocepacia, UniProt B4EMD2, S41R); assay: CepI activity assay (DCPIP), IC50 determination, S41R mutant; type: biochemical; details: compound 8b IC50, CepI S41R; 70 μM C8-ACP, 40 μM SAM, 4 μM CepI
# T5 sequence (B4EMD2 1-202 S41R): T1 sequence (B4EMD2 1-202)
# [6] = target: T6, CepI Q46R mutant (Burkholderia cenocepacia, UniProt B4EMD2, Q46R); assay: CepI activity assay (DCPIP), IC50 determination, Q46R mutant; type: biochemical
# T6 sequence (B4EMD2 1-202 Q46R): T1 sequence (B4EMD2 1-202)
# [7] = tested on: B. cenocepacia J2315; assay: Proteomic analysis (2-DE, LC-MS/MS) of treated cells compared with the ΔcepI strain; type: cell-based, Burkholderia cenocepacia; details: J2315 cells treated with 25 μM 8b, compared with untreated J2315; same as ΔcepI profile
# Protocol: Burkholderia cenocepacia ΔcepI ([Udine et al., 2013]) and J2315 (with or without 25 μM of 8b compound) were grown in 10 ml of LB medium until OD600 nm > 2. Cells were then harvested, resuspended in 0.2 ml of Tris-HCl 50 mM, pH 7.5, disrupted by sonication, and centrifuged at 12,000 rpm for 1 h at 4°C.
# The amount of proteins present in the supernatant was quantified by bicinchoninic acid method ([Smith et al., 1985]), then 300 μg were precipitated with 10% (v/v) trichloroacetic acid. The obtained protein pellet was dissolved in 125 μL of rehydration buffer (8 M urea, 4% CHAPS (w/v), 65 mM DTE, 0.8% carrier ampholytes (v/v) and 0.5% bromophenol blue) and loaded onto 7 cm IPG strips, with nonlinear pH 3–10 gradient range (GE Healthcare), and strips rehydrated for 1 h at 20°C. The first-dimensional IEF was carried out at 15°C using an Ettan IPGphor system (GE Healthcare), by applying 30 V for 8 h, 120 V for 1 h, 500 V for 0.5 h, 1000 V for 0.5 h and 5000 V for 6 h, for a total of 29–30 kVh. […] Digital images of stained gels were acquired using VersaDoc Imaging Model 3000 (BioRad) and then subjected to quali/quantitative analysis using the PD Quest (BioRad) version 8.0.1 software. […] The software then determined the amount of spots present and calculated their intensity by applying the following algorithm: peak value (ODs/image units) ^∗σx^∗σy (standard deviations in x and y). […]
smiles,measurement,setting,value
"O=C1C=CC(=O)C(C2NC(=O)[C@H](Cc3ccccc3)NC2=O)=C1 (stereo partly drawn) [8b, (3S)-3-Benzyl-6-(3,6-dioxocyclohexa-1,4-dien-1-yl)piperazine-2,5-dione]",IC50,[1],7.2 ± 0.2 µM
same,IC50,[2],147 ± 17 µM
same,IC50,[3],53 ± 2.6 µM
same,IC50,[4],113 ± 11 µM
same,IC50,[5],1070 ± 75 µM
same,IC50,[6],19.2 ± 3.5 µM
same,compound 8b IC50,"[6]; CepI Q46R, 70 μM C8-ACP, 40 μM SAM, 4 μM CepI",comparable to wild type CepI
same,density of the 2-DE protein spot of the giant cable pilus protein CblA,[7],higher density
